Measured values: patent publication US20120258938A1, “Enzymatic Production or Chemical Synthesis and Uses for 5,7-Dienes and UVB Conversion Products Thereof” (priority 2008, published 2012)

Legend:
[1] = tested on: immortalized normal epidermal melanocytes (PIG1 line); assay: Proliferation of PIG1 melanocytes; assay type: cell-based; conditions: PIG1, 72 h
VDRE = assay: Electrophoretic mobility shift assay for VDR activation (VDRE probe); assay type: cell-based, human; conditions: HaCaT nuclear extracts, 10 nM, 24 h
[2] = tested on: human breast carcinoma cell line MD-MBA-231; assay: Proliferation of MD-MBA-231 breast carcinoma cells; assay type: cell-based; conditions: MD-MBA-231, 48 h, [3H]-thymidine
Method: Cells were seeded in 96-well plate and incubated with 20-hydroxycholecalciferol in DMEM medium containing 5% FBS for 48 h (FIG. 25A) or 72 h (FIG. 25C) or for 24 h after a 12 h synchronization in serum free medium (FIG. 25D). […] was added for a final 18 h (FIGS. 25A, 25D) or 12 h (FIG. 25C) of incubation or cells were assessed with sulforhodamine assay (FIG. 25C). Data is shown as mean±SEM (n=5; FIG. 24C) or mean±SEM (n=6; FIGS. 24A, 24C, 24D) and was analyzed using GraphPrism 4.0.

MD-MBA-231 = assay: Flow cytometry cell cycle and subG1, MD-MBA-231; assay type: cell-based, human; conditions: MD-MBA-231, 24 h
Method: (§1) MD-MBA-231, MG-63, PC-3, and WM164 cells were seeded into Petri dishes and then incubated for 24 h with 20-hydroxycholecalciferol in DMEM medium containing 5% FBS. Then cells were fixed, DNA stained and samples read with flow cytometer as described (7). Data was analyzed with Cell Quest (BD Biosciences). Cell cycle phases were assessed in viable cell populations and subG1 contents were calculated within whole cell population.

WM164 = assay: Flow cytometry cell cycle and subG1, WM164; assay type: cell-based; conditions: WM164, 24 h
Method: as §1

TNFα = assay: LPS-induced TNFα production by PBMC; assay type: cell-based; conditions: normal human PBMC, LPS (10 pg/ml), 10^−8M
NFκBI (IκBα) = assay: Western blot IκB-α in HaCaT and normal keratinocytes; assay type: cell-based, human; conditions: 100 nM, time dependant
Method: HaCaT keratinocytes were treated with 20,23-dihydroxycholecalciferol for indicated time: 0 h, 30 min, 1 h, 4 h, 16 h and 24 h, at the concentration of 10^−7 [M]. Cells were lysed and whole cell extract has been prepared. The equal amount of proteins calculates using Bradford method has been subjected to electrophoresis in SDS-PAGE 7-15% gel and transferred to a PVDF membrane (Millipore). The primary antibodies used were the rabbit polyclonal antibodies of anti+ IκB-α (Santa Cruz), 1:250 dilution, anti-p65 (Santa Cruz) 1:500 dilution and anti-β actin-peroxidase (Sigma) 1:1000 dilution. Secondary antibody used was anti rabbit-HRP (Santa Cruz) 1:7,000 dilution.

[3] = tested on: PC3 human prostate cancer cells; assay: Soft agar colony formation, PC3 prostate cancer; assay type: cell-based; conditions: PC3, dose dependent
Method: Growth and survival of prostate cancer cells (PC3) and melanoma cells SKMEL 188 and AbC1 was determined by following their ability to form colonies in soft agar. Cells growing in monolayer culture were trypsinized and resuspended (1,000 cells/well) in 0.25 ml medium containing 0.4% agarose and 5% charcoal stripped serum (HyClone).
Cell suspensions were added to 0.8% agar layer in 24 well plates. Compounds were added from ethanol stocks (100 μM) to final concentrations of 0.1 nM or 10 nM, in 100 μL media. Each condition was tested in quadruplicate. An ethanol solvent control (amount of ethanol equivalent to test) as well as a media-only control was included in the assay. Cells were allowed to grow at 37° with 5% CO2 over two weeks with secosteroids in fresh media (100 μL) being added after every 72 h. Soft agar colonies were scored and stained with 0.5 mg/ml MTT reagent (Promega), 500 μL/well after two weeks. Colonies were then counted under the microscope and number of units was calculated as number of colonies formed divided by the number of cells seeded×100.

[4] = tested on: K562 human chronic myeloid leukemia cells; assay: Viable cell count, K562 cells; assay type: cell-based; conditions: 10^-7 M, 7 days
Method: (§2) K562 human chronic myeloid leukemia (erythroleukemia) and MEL mouse erytholeukemia cells were cultured in RPMI 1640 containing 10% FBS and treated with the drugs at concentrations 0.1 μM. A 0.1% ethanol (EtOH) or 2% DMSO were used as negative or positive control, respectively to estimate the vehicle effect and the ability of the cells to differentiate. Media were exchanged every 72 h and drugs added every day. Growth of cultures was estimated by counting number of viable cells (trypan blue negative cells) as described previously.

[5] = tested on: mouse erytholeukemia cells (Mel); assay: Viable cell count, MEL cells; assay type: cell-based; conditions: 10^-7 M, 7 days
Method: as §2

[6] = tested on: U937 promonocytic leukemia cells; assay: Monocytic differentiation (NBT), U937; assay type: cell-based, human; conditions: U937, 0.1 μM
Method: HL-60 human promyelocytic and U937 promonocytic leukemia cells were treated with the drugs at 0.1 μM or vehicle (negative control or 12-O-tetradecanoylphorbol-13-acetate (TPA) (positive control). Media were changed every 72 h and test substances added fresh every day. Differentiation toward monocytes-like morphology and NBT-reduction has been assessed after 5 and 7 days. Cells (2×106) were washed with PBS four times and resuspended in 200 μL of NBT solution (4 mg/mL) in water. After the addition of 200 ul of TPA solution (2 ug/ml) in PBS cells were incubated at 37° C. for 60 min in 24-well plates. Cell differentiation was assessed by intracellular blue formazan deposits. The NBT positive and negative cells were scored under light microscopy examination (40×) with a minimum of 200 cells scored.
For spectrophotometric analysis the cells were washed twice with buffer containing cold bovine serum albumin solution (17 mg/mL BSA, 137 mmol/L, NaCl, 5 mmol/L, KCl, 0.8 mmol/L, MgSO4, […], HEPES, pH7.4) to remove unreacted NBT, and the insoluble formazan deposits in the resulting pellet were solubilized in 1 mL of a mixture containing 90% DMSO, 0.1% SDS and 0.01 mmol/L NaOH by vigorous vortexing. The samples were centrifuged 5 min at 1500 g to remove the cellular debris, and then the absorbance of supernatants was measured at 715 nm. Data are expressed as change in A715/106 cells.

## C=C1/C(=C\C=C2/CCC[C@]3(C)[C@@H]([C@H](C)CCCC(C)(C)O)CC[C@@H]23)C[C@@H](O)C[C@@H]1O [1α,25-dihydroxycholecalciferol, (5Z,7E)-9,10-secocholesta-5,7,10(19)-triene-1α,3β,25-triol, reference compound]
[1]
  proliferation: Dose dependent inhibition of the proliferation

## C=C1CC[C@H](O)C/C1=C/C=C1\CCC[C@@]2(C)[C@H]1CC[C@@H]2[C@@](C)(O)CCCC(C)C [20(OH)D3, (5Z,7E)-9,10-secocholesta-5,7,10(19)-triene-3β,20-diol]
VDRE
  binding of protein complexes to VDRE probe: stimulated binding activity of protein complexes to VDRE probe
[2]
  EC50: 0.01 µM
MD-MBA-231
  G0/G1 of viable cells: 47%
  G2/M of viable cells: 10
  S of viable cells: 43%
  Viable Cells: 8
MD-MBA-231; whole cell population
  subG1: 92
WM164
  G0/G1 of viable cells: 70%
  G2/M of viable cells: 7
  S of viable cells: 24%
  Viable Cells: 87
WM164; whole cell population
  subG1: 13
TNFα
  TNFα production: 2609 ± 1961 pg/mL

## C=C1CC[C@H](O)C/C1=C/C=C1\CCC[C@]2(C)[C@@H](C(C)(O)CC(O)CC(C)C)CC[C@@H]12 (stereo partly drawn) [20,23-dihydroxycholecalciferol, (5Z,7E)-9,10-secocholesta-5,7,10(19)-triene-3β,20,23-triol]
NFκBI (IκBα)
  NFκBI (IκBα) protein levels: induced an increase in NFκBI (IκBα) protein levels

## C=C1CC[C@H](O)C/C1=C/C=C1\CCC[C@]2(C)[C@@H](C(C)=O)CC[C@@H]12 [pD3, (5Z,7E)-3β-hydroxy-9,10-secopregna-5,7,10(19)-trien-20-one]
[3]
  colony formation on soft agar: suppress colony formation on soft agar
[4]
  proliferation of K562 cells: inhibit proliferation
[5]
  proliferation of mouse erytholeukemia cells (Mel): inhibit proliferation
[6]
  monocytic differentiation (NBT staining): induce monocytic differention
